Measured values as given in ChEMBL document CHEMBL4138175, “Newly designed organotin(IV) carboxylates with peptide linkage: Synthesis, structural elucidation, physicochemical characterizations and pharmacological investigations” (Eur J Med Chem, 2018).
Values after ≈ are worked out from the molar mass of the structure shown. Active and inactive are the calls of the source. No cut-off for these calls is given here.

How the values were obtained:
NCI-H157 [1] = experiment: Cytotoxicity against human NCI-H157 cells at 100 uM after 48 hrs by sulforhodamine B assay; assay type: functional
Streptococcus pyogenes [2] = experiment: Antibacterial activity against Streptococcus pyogenes assessed as zone of inhibition by measuring activity index after 24 to 48 hrs by well diffusion method relative to penicillin G; assay type: functional, organism-based
Serratia marcescens [3] = experiment: Antibacterial activity against Serratia marcescens assessed as zone of inhibition by measuring activity index after 24 to 48 hrs by well diffusion method relative to amoxicillin; assay type: functional
BHK-21 [4] = experiment: Cytotoxicity against golden hamster BHK21 cells at 100 uM after 48 hrs by sulforhodamine B assay; assay type: cell-based, Mesocricetus auratus; conditions: bhk-21, 48 h
Staphylococcus aureus [5] = experiment: Antibacterial activity against Staphylococcus aureus assessed as zone of inhibition by measuring activity index after 24 to 48 hrs by well diffusion method relative to ampicillin; assay type: functional, organism-based
Staphylococcus aureus [6] = experiment: Antibacterial activity against Staphylococcus aureus assessed as zone of inhibition by measuring activity index after 24 to 48 hrs by well diffusion method relative to penicillin G; assay type: functional, organism-based
Streptococcus pyogenes [7] = experiment: Antibacterial activity against Streptococcus pyogenes assessed as zone of inhibition by measuring activity index after 24 to 48 hrs by well diffusion method relative to amoxicillin; assay type: functional, organism-based
Pseudomonas aeruginosa [8] = experiment: Antibacterial activity against Pseudomonas aeruginosa assessed as zone of inhibition after 24 to 48 hrs by well diffusion method; assay type: functional
BHK-21 [9] = experiment: Cytotoxicity against golden hamster BHK21 cells at 0.1 uM after 48 hrs by sulforhodamine B assay; assay type: cell-based, Mesocricetus auratus; conditions: bhk-21, 48 h
Escherichia coli [10] = experiment: Antibacterial activity against Escherichia coli assessed as zone of inhibition by measuring activity index after 24 to 48 hrs by well diffusion method relative to tetracycline; assay type: functional
NCI-H157 [11] = experiment: Cytotoxicity against human NCI-H157 cells at 0.1 uM after 48 hrs by sulforhodamine B assay; assay type: functional
Streptococcus pyogenes [12] = experiment: Antibacterial activity against Streptococcus pyogenes assessed as zone of inhibition after 24 to 48 hrs by well diffusion method; assay type: functional
Leishmania major [13] = experiment: Antileishmanial activity against Leishmania major promastigotes at 1 uM after 72 hrs by MTT assay relative to control; assay type: functional
NCI-H157 [14] = experiment: Cytotoxicity against human NCI-H157 cells at 1 uM after 48 hrs by sulforhodamine B assay; assay type: functional
BHK-21 [15] = experiment: Cytotoxicity against golden hamster BHK21 cells at 1 uM after 48 hrs by sulforhodamine B assay; assay type: cell-based, Mesocricetus auratus; conditions: bhk-21, 48 h
Klebsiella pneumoniae [16] = experiment: Antibacterial activity against Klebsiella pneumoniae assessed as zone of inhibition after 24 to 48 hrs by well diffusion method; assay type: functional
Leishmania major [17] = experiment: Antileishmanial activity against Leishmania major promastigotes at 10 uM after 72 hrs by MTT assay relative to control; assay type: functional
[18] = test system: Staphylococcus epidermidis; experiment: Antibacterial activity against Staphylococcus epidermidis assessed as zone of inhibition by measuring activity index after 24 to 48 hrs by well diffusion method relative to ampicillin; assay type: functional, organism-based
Pseudomonas aeruginosa [19] = experiment: Antibacterial activity against Pseudomonas aeruginosa assessed as zone of inhibition by measuring activity index after 24 to 48 hrs by well diffusion method relative to ampicillin; assay type: functional, organism-based
Staphylococcus aureus [20] = experiment: Antibacterial activity against Staphylococcus aureus assessed as zone of inhibition after 24 to 48 hrs by well diffusion method; assay type: functional
BHK-21 [21] = experiment: Cytotoxicity against golden hamsterBHK21 cells at 10 uM after 48 hrs by sulforhodamine B assay; assay type: cell-based, Mesocricetus auratus; conditions: hamster, bhk-21, 48 h
[22] = test system: Staphylococcus epidermidis; experiment: Antibacterial activity against Staphylococcus epidermidis assessed as zone of inhibition after 24 to 48 hrs by well diffusion method; assay type: functional
[23] = test system: Staphylococcus epidermidis; experiment: Antibacterial activity against Staphylococcus epidermidis assessed as zone of inhibition by measuring activity index after 24 to 48 hrs by well diffusion method relative to penicillin G; assay type: functional, organism-based
Escherichia coli [24] = experiment: Antibacterial activity against Escherichia coli assessed as zone of inhibition after 24 to 48 hrs by well diffusion method; assay type: functional
Serratia marcescens [25] = experiment: Antibacterial activity against Serratia marcescens assessed as zone of inhibition after 24 to 48 hrs by well diffusion method; assay type: functional
Staphylococcus aureus [26] = experiment: Antibacterial activity against Staphylococcus aureus assessed as zone of inhibition by measuring activity index after 24 to 48 hrs by well diffusion method relative to tetracycline; assay type: functional, organism-based
Serratia marcescens [27] = experiment: Antibacterial activity against Serratia marcescens assessed as zone of inhibition by measuring activity index after 24 to 48 hrs by well diffusion method relative to penicillin G; assay type: functional
NCI-H157 [28] = experiment: Cytotoxicity against human NCI-H157 cells after 48 hrs by sulforhodamine B assay; assay type: functional, cell-based
Leishmania major [29] = experiment: Antileishmanial activity against Leishmania major promastigotes at 100 uM after 72 hrs by MTT assay relative to control; assay type: functional
Streptococcus pyogenes [30] = experiment: Antibacterial activity against Streptococcus pyogenes assessed as zone of inhibition by measuring activity index after 24 to 48 hrs by well diffusion method relative to ampicillin; assay type: functional, organism-based
Serratia marcescens [31] = experiment: Antibacterial activity against Serratia marcescens assessed as zone of inhibition by measuring activity index after 24 to 48 hrs by well diffusion method relative to ampicillin; assay type: functional
NCI-H157 [32] = experiment: Cytotoxicity against human NCI-H157 cells at 10 uM after 48 hrs by sulforhodamine B assay; assay type: functional
Leishmania major [33] = experiment: Antileishmanial activity against Leishmania major promastigotes at 0.1 uM after 72 hrs by MTT assay relative to control; assay type: functional
Klebsiella pneumoniae [34] = experiment: Antibacterial activity against Klebsiella pneumoniae assessed as zone of inhibition by measuring activity index after 24 to 48 hrs by well diffusion method relative to penicillin G; assay type: functional, organism-based
Streptococcus pyogenes [35] = experiment: Antibacterial activity against Streptococcus pyogenes assessed as zone of inhibition by measuring activity index after 24 to 48 hrs by well diffusion method relative to tetracycline; assay type: functional, organism-based
Staphylococcus aureus [36] = experiment: Antibacterial activity against Staphylococcus aureus assessed as zone of inhibition by measuring activity index after 24 to 48 hrs by well diffusion method relative to amoxicillin; assay type: functional, organism-based
BHK-21 [37] = experiment: Cytotoxicity against golden hamster BHK21 cells after 48 hrs by sulforhodamine B assay; assay type: cell-based, Mesocricetus auratus; conditions: bhk-21, 48 h
HepG2 = experiment: Cytotoxicity against human HepG2 cells by MTT assay; assay type: functional, cell-based
[38] = test system: Agrobacterium tumefaciens; experiment: Antitumor activity against Agrobacterium tumefaciens-induced tumor after 21 days by potato disc bioassay technique; assay type: functional
Escherichia coli [39] = experiment: Antibacterial activity against Escherichia coli assessed as zone of inhibition by measuring activity index after 24 to 48 hrs by well diffusion method relative to amoxicillin; assay type: functional, organism-based
Klebsiella pneumoniae [40] = experiment: Antibacterial activity against Klebsiella pneumoniae assessed as zone of inhibition by measuring activity index after 24 to 48 hrs by well diffusion method relative to amoxicillin; assay type: functional, organism-based
Klebsiella pneumoniae [41] = experiment: Antibacterial activity against Klebsiella pneumoniae assessed as zone of inhibition by measuring activity index after 24 to 48 hrs by well diffusion method relative to ampicillin; assay type: functional, organism-based
Klebsiella pneumoniae [42] = experiment: Antibacterial activity against Klebsiella pneumoniae assessed as zone of inhibition by measuring activity index after 24 to 48 hrs by well diffusion method relative to tetracycline; assay type: functional, organism-based
Escherichia coli [43] = experiment: Antibacterial activity against Escherichia coli assessed as zone of inhibition by measuring activity index after 24 to 48 hrs by well diffusion method relative to penicillin G; assay type: functional, organism-based
[44] = test system: Staphylococcus epidermidis; experiment: Antibacterial activity against Staphylococcus epidermidis assessed as zone of inhibition by measuring activity index after 24 to 48 hrs by well diffusion method relative to amoxicillin; assay type: functional, organism-based
DNA [45] = experiment: Binding affinity to single-stranded DNA (unknown origin) assessed as DNA intercalation by measuring increase in relative viscosity of DNA-compound complex by viscometry; assay type: nucleic-acid assay
DNA [46] = experiment: Binding affinity to single-stranded DNA (unknown origin) after 10 mins by UV-visible spectrometric method; assay type: nucleic-acid assay
[47] = test system: Staphylococcus epidermidis; experiment: Antibacterial activity against Staphylococcus epidermidis assessed as zone of inhibition by measuring activity index after 24 to 48 hrs by well diffusion method relative to tetracycline; assay type: functional, organism-based
DNA [48] = experiment: Binding affinity to single-stranded DNA (unknown origin) assessed as red shift up to 72 uM after 10 mins by UV-visible spectrometric method; assay type: nucleic-acid assay
Escherichia coli [49] = experiment: Antibacterial activity against Escherichia coli assessed as zone of inhibition by measuring activity index after 24 to 48 hrs by well diffusion method relative to ampicillin; assay type: functional, organism-based

| Molecule | Activity (NCI-H157 [1]) [%] | Activity (BHK-21 [4]) [%] | inhibition zone (IZ) (Pseudomonas aeruginosa [8]) | Activity (BHK-21 [9]) [%] | Activity (NCI-H157 [11]) [%] | inhibition zone (IZ) (Streptococcus pyogenes [12]) | Activity (Leishmania major [13]) [%] | Activity (NCI-H157 [14]) [%] | Activity (BHK-21 [15]) [%] | inhibition zone (IZ) (Klebsiella pneumoniae [16]) | Activity (Leishmania major [17]) [%] | Activity_index (Pseudomonas aeruginosa [19]) | inhibition zone (IZ) (Staphylococcus aureus [20]) | Activity (BHK-21 [21]) [%] | inhibition zone (IZ) [22] | inhibition zone (IZ) (Escherichia coli [24]) | inhibition zone (IZ) (Serratia marcescens [25]) [mm] | Activity (NCI-H157 [28]) | Activity (Leishmania major [29]) [%] | Activity (NCI-H157 [32]) [%] | also measured |
| --- | --- | --- | --- | --- | --- | --- | --- | --- | --- | --- | --- | --- | --- | --- | --- | --- | --- | --- | --- | --- | --- |
| COc1ccc(NC(=O)c2ccccc2C(=O)[O-])c([N+](=O)[O-])c1.[Na+] | 52.2 | 53.5 | inactive | 40.5 | 25.1 | inactive | 40.2 | 35.2 | 44.2 | inactive | 46.3 | inactive | inactive | 48.9 | inactive | 5 mm | 7.33 | Dose-dependent effect | 49.5 | 50.3 | Activity_index (Streptococcus pyogenes [2]): inactive; Activity_index (Serratia marcescens [3]): 1.22; Activity_index (Staphylococcus aureus [5]): inactive; Activity_index (Staphylococcus aureus [6]): inactive; Activity_index (Streptococcus pyogenes [7]): inactive; Activity_index (Escherichia coli [10]): 2.5; Activity_index [18]: inactive; Activity_index [23]: inactive; Activity_index (Staphylococcus aureus [26]): inactive; Activity_index (Serratia marcescens [27]): 0.92; Activity_index (Streptococcus pyogenes [30]): inactive; Activity_index (Serratia marcescens [31]): 0.92; Activity (Leishmania major [33]): 38.4%; Activity_index (Klebsiella pneumoniae [34]): inactive; Activity_index (Streptococcus pyogenes [35]): inactive; Activity_index (Staphylococcus aureus [36]): inactive; Activity (BHK-21 [37]): Dose-dependent effect |
| CC[C@]1(O)C[C@H]2CN(CCc3c([nH]c4ccccc34)[C@@](C(=O)OC)(c3cc4c(cc3OC)N(C=O)[C@H]3[C@@](O)(C(=O)OC)[C@H](OC(C)=O)[C@]5(CC)C=CCN6CC[C@]43[C@@H]65)C2)C1 [VINCRISTINE] | 74.5 | 74.5 | – | 69.8 | 69.8 | – | – | 70.9 | 70.9 | – | – | – | – | 72.6 | – | – | – | Dose-dependent effect | – | 72.6 | IC50 (HepG2): 0.042 µg/mL (≈ 0.0509 µM); Activity (BHK-21 [37]): Dose-dependent effect; Activity [38]: 100% |
| Triethylstannyl 2-(4-methoxy-2-nitrophenylcarbamoyl)benzoate | 62.4 | – | inactive | – | 39.8 | 15.7 mm | 49.4 | 43.7 | – | 27.7 mm | 53.2 | inactive | 19.3 mm | – | 11 mm | inactive | 15.3 | Dose-dependent effect | 56.4 | 57.4 | Activity_index (Escherichia coli [39]): inactive; Activity index (Serratia marcescens [3]): 2.55; Activity index (Klebsiella pneumoniae [40]): 4.61; Activity index (Klebsiella pneumoniae [41]): 4.61; Activity index (Klebsiella pneumoniae [42]): 1.98; Activity_index (Escherichia coli [43]): inactive; Activity index [44]: 5.5; Activity (DNA [45]): Active; K (DNA [46]): 9.3 ×10³ /M; Activity index (Serratia marcescens [27]): 1.92; Activity index [47]: 1.1; Activity index (Serratia marcescens [31]): 1.92; Activity (Leishmania major [33]): 45.3%; Activity (DNA [48]): < 3 nm; Activity_index (Escherichia coli [49]): inactive |
